How the values were obtained:
H1N1 influenza virus [1] = type: cell-based; conditions: for IC50 (mg HMO/mL) H1N1 Influenza: co-incubation of virus (about 500 to 1,000 units/mL) with HMO at 1 or 10 mg/mL
[2] = test system: monocyte-derived cytokines; assay: Monocyte-derived cytokines in peripheral blood mononuclear cells with or without RSV (Example 39); type: cell-based, human; conditions: PBMC
Description: (§1) Specifically, either 3′SL or 6′SL is added, at concentrations of 0.1 mg/mL, 0.2 mg/mL, or 0.5 mg/mL to fresh peripheral blood mononuclear cells and incubated at 37° C. in 5% CO2 to pretreat the cells for approximately 24 hours. LNnT is added, at concentrations of 0.1 mg/mL, 0.2 mg/mL, or 1 mg/mL to fresh peripheral blood mononuclear cells and incubated at 37° C. in 5% CO2 to pretreat the cells for approximately 24 hours. Lactose is included as a carbohydrate control. Matched endotoxin unit concentration controls are included to allow differentiation of ingredient effects from inherent low levels of endotoxin. Some variables are then incubated with RSV at a multiplicity of infection (MOI) of 0.1 for approximately 1 hour at 37° C. in 5% in CO2. Uninfected control variables are incubated with medium for approximately 1 hour at 37° C. in 5% CO2. After approximately one hour, fresh medium alone, or fresh medium containing the appropriate concentration of 3′SL, 6′SL, LNnT, lactose, or endotoxin is added to the appropriate tubes and the cells are incubated for 48 hours at 37° C. in 5% CO2. Supernatants are collected at 24 and 48 hours post-infection.
(§2) Cytokines are measured in supernatants for each variable at 24 and 48 hours to assess the effects of HMOs on the early immune response to RSV. Cytokines are measured using custom Bio-Plex Human cytokine kits from Bio-Rad. Results for interferon-inducible protein 10 (IP-10, also known as CXCL 10) are shown in FIGS. 3 and 4 for 3′SL and 6′SL, and in FIGS. 5 and 6 for LNnT. IP-10 is a CXC chemokine that attracts, binds to and activates the CXCR3 receptor on natural killer cells and memory T cells. IP-10 is expressed by monocytes and a number of other cells, and is induced by interferon. A positive con-elation exists between RSV clinical disease severity in children (as measured by: length of hospital stay, fever, and number of days supplemental O2 is required) and serum IP-10. Therefore, a decrease in IP-10 signals a decrease in severity of RSV disease experienced.

H1N1 influenza virus [3] = assay: microbe, parasite or virus in culture; type: cell-based; conditions: HMO at 10 mg/mL, MDCK cells, FIG. 1
[4] = test system: respiratory syncytial virus (RSV); assay: In vitro inhibition of viral infectivity by purified HMOs (Example 36), RSV; type: cell-based; conditions: co-incubation of virus (about 500 to 1,000 units/mL) with HMO at 1 or 10 mg/mL
Description: In this Example, the effect of purified human milk oligosaccharides (HMO) on in vitro inhibition of viral infectivity is analyzed.
Samples are prepared by co-incubation of a uniform virus dose of from about 500 units/mL to about 1,000 units/mL of one of three respiratory viruses: (1) respiratory syncytial virus (RSV); (2) human parainfluenza virus (HPIV3); or (3) H1N1 influenza virus with one of the following HMOs: (1) 3′-sialyllactose (3′SL); (2) 6′-sialyllactose (6′SL); (3) 3′-fucosyllactose (3′FL); (4) 2′-fucosyllactose (2′FL); (5) lacto-N-neotetraose (LNnT); or (6) sialic acid (SA). The HMOs are added at concentrations of either 1 mg/mL or 10 mg/mL.

interleukin 10 (IL-10) = assay: IL-10 in supernatants of peripheral blood mononuclear cells with or without RSV (Example 39); type: cell-based, human; conditions: in the presence or absence of RSV; FIGS. 7-10
Description: as §1, with “After approximately one hour, fresh medium alone, or fresh medium containing the appropriate concentration of 3′SL, 6′SL, LNnT, lactose, or endotoxin is added to the appropriate tubes and the cells are incubated for 48 hours at 37° C. in 5% CO2. Supernatants are collected at 24 and 48 hours post-infection.” left out
Cytokines are measured in supernatants for each variable at 24 and 48 hours to assess the effects of HMOs on the early immune response to RSV. Cytokines are measured using custom Bio-Plex Human cytokine kits from Bio-Rad. […] A positive con-elation exists between RSV clinical disease severity in children (as measured by: length of hospital stay, fever, and number of days supplemental O2 is required) and serum IP-10. […]

[5] = test system: human parainfluenza virus (HPIV3); type: cell-based; conditions: co-incubation of virus (about 500 to 1,000 units/mL) with HMO at 1 or 10 mg/mL
[6] = test system: interferon-inducible protein 10 (IP-10); assay: IP-10 in supernatants of RSV-infected peripheral blood mononuclear cells pretreated with HMO (Example 39); type: cell-based, human; conditions: for IP-10 in virus-infected variables: PBMC of two donors, 24 h pretreatment, RSV MOI 0.1, supernatants at 24 and 48 hours, FIGS. 3-6; for IP-10 level reached relative to uninfected controls: RSV-infected PBMC; for dampening of virus-induced inflammation as measured by a decrease in IP-10, comparison: compared with 3′SL; for reduction of inflammation caused by RSV: pretreatment for 24 hours
Description: as §1, §2

SMILES | IC50 (mg HMO/mL) H1N1 Influenza (H1N1 influenza virus [1]) [mg HMO/mL] | production of monocyte-derived cytokines (IL-10, MIP-1β, Interferon-γ, IL-8, IL-1α, IL-1β, IL-1ra) [2] | inhibition of H1N1 virus infectivity (H1N1 influenza virus [3]) | IC50 (mg HMO/mL) RSV [4] [mg HMO/mL] | IL-10 concentration (interleukin 10 (IL-10)) | IC50 (mg HMO/mL) HPIV3 [5] [mg HMO/mL] | IP-10 in virus-infected variables [6] | IP-10 level reached relative to uninfected controls [6] | dampening of virus-induced inflammation as measured by a decrease in IP-10, comparison [6] | reduction of inflammation caused by RSV [6] | anti-viral activity against H1N1 influenza virus (H1N1 influenza virus [1]; HMO at 1 mg/mL) | RSV-induced IP-10, Donor B ([6]; Donor B, 0.1, 0.2 or 0.5 mg/mL) | RSV-induced IP-10, Donor E ([6]; Donor E, 0.1, 0.2 or 0.5 mg/mL) | inhibition at 10000 µg/mL (H1N1 influenza virus [3]; Influenza A virus, H1N1, read-out: inhibition of H1N1 virus infectivity) [%]
CC(=O)N[C@H]1[C@H]([C@H](O)[C@H](O)CO)O[C@@](OC[C@H]2O[C@@H](O[C@H]3[C@H](O)[C@@H](O)[C@H](O)O[C@@H]3CO)[C@H](O)[C@@H](O)[C@H]2O)(C(=O)O)C[C@@H]1O [6′SL, 6′-sialyllactose] | ~10 | immunomodulatory in the absence of the virus | approximately 60% | >10 | increases interleukin 10 (IL-10) concentration in a dose-dependent manner | >10 | clearly downregulates IP-10 | reduce IP-10 to levels found in uninfected controls | more effective than 3′SL | effective in reducing inflammation caused by RSV |  |  |  | 
CC(=O)N[C@H]1[C@H](O[C@H]2[C@@H](O)[C@@H](CO)O[C@@H](O[C@H]3[C@H](O)[C@@H](O)C(O)O[C@@H]3CO)[C@@H]2O)O[C@H](CO)[C@@H](O[C@@H]2O[C@H](CO)[C@H](O)[C@H](O)[C@H]2O)[C@@H]1O (mixture of isomers) [LNnT, lacto-N-neotetraose] | >10 | immunomodulatory in the presence or absence of the virus |  | >10 | increases IL-10 concentration in a dose-dependent manner |  | clearly downregulates IP-10 | reduce IP-10 to levels found in uninfected controls | more effective than 3′SL | effective in reducing inflammation caused by RSV |  |  |  | 
CC(=O)N[C@H]1[C@H]([C@H](O)[C@H](O)CO)O[C@@](O[C@H]2[C@@H](O)[C@@H](CO)O[C@@H](O[C@H]3[C@H](O)[C@@H](O)C(O)O[C@@H]3CO)[C@@H]2O)(C(=O)O)C[C@@H]1O (stereo partly shown) [3′SL, 3′-sialyllactose] | ~5 | immunomodulatory in the presence or absence of the virus |  | >10 |  | >10 | dampen RSV-induced IP-10 |  |  | effective in reducing inflammation caused by RSV | inhibited | not effective | downregulates RSV-induced IP-10 | 
CC(=O)N[C@H]1[C@H]([C@H](O)[C@H](O)CO)OC(O)(C(=O)O)C[C@@H]1O (stereo partly shown) [SA, sialic acid] |  |  |  |  |  |  |  |  |  |  |  |  |  | > 90
